Results taken from PMC12846068, “Insights into Transport Function of the Murine Organic Anion-Transporting Polypeptide OATP1B2 by Comparison with Its Rat and Human Orthologues” (Toxics, 2025).
Entries after “also recorded” stand apart in the source; their conditions may differ. Like-named read-outs stand apart in the source and are kept apart here.

Experiments:
[1] = target: T1, mOATP1B2 (Mus musculus, UniProt Q9JJL3); assay: cis-inhibition of mOATP1B2-mediated E1S or TCA uptake in HEK293 cells; assay type: cell-based
T1 construct: The full-length mOATP1B2 and rOATP1B2 consist of 689 and 678 amino acids
T1 sequence (Q9JJL3 1-689): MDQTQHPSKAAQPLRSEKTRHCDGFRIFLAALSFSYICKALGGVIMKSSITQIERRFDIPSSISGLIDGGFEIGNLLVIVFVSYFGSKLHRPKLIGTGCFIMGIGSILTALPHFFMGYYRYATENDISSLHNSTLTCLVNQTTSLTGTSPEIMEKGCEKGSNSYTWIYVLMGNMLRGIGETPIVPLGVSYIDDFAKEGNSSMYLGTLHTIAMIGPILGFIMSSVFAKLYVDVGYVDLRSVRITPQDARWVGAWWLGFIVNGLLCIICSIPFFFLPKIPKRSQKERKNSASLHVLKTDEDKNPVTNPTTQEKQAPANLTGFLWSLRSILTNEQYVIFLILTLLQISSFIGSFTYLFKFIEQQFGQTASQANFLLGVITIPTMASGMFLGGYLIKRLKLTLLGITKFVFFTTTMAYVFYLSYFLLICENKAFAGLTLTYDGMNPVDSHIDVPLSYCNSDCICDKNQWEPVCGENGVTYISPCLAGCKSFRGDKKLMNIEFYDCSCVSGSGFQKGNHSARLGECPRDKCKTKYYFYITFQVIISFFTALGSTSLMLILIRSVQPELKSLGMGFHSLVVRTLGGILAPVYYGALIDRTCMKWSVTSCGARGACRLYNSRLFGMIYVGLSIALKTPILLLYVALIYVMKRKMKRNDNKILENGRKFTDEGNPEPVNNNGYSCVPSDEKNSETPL
Protocol: Inhibition experiments with mOATP1B2 and rOATP2B1 were carried out in triplicate as cis-inhibition. […] Inhibitory effects were calculated as a percentage of the net-uptake rates. […] The means ± average deviation (AD, for N = 2) were calculated from two experiments on two different days. The significance as a p-value was calculated using Student's t-test in Microsoft Excel.

[2] = target: T2, hOATP1B1 (Homo sapiens, UniProt Q9Y6L6); conditions: read-out: IC50 for hOATP1B1, cited from earlier work
T2 sequence (Q9Y6L6 1-691): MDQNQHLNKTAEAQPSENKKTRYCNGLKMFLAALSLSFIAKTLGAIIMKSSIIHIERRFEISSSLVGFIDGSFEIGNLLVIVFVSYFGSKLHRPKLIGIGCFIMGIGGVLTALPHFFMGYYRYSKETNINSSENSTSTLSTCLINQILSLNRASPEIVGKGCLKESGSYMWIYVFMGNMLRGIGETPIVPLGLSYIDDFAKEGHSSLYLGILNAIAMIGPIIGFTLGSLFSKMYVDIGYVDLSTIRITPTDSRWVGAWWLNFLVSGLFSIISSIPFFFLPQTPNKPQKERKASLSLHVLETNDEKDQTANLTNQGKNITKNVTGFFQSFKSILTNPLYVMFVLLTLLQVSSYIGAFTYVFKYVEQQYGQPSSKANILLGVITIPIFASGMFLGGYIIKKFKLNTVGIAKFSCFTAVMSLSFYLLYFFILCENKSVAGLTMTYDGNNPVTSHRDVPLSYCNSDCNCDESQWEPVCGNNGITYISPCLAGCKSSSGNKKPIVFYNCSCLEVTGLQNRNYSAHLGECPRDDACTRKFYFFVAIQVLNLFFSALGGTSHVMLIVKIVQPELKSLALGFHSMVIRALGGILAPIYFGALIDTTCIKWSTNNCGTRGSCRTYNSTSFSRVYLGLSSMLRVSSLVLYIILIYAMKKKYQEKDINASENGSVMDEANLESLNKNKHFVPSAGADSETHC

[3] = target: T3, rOATP1B2 (Rattus norvegicus, UniProt Q9QZX8); design: method as in Ishida et al. (2018) [9]; conditions: ref Ishida et al. (2018) [9]; read-out: Km, rOATP1B2-mediated uptake; cited from earlier work
T3 construct: The full-length mOATP1B2 and rOATP1B2 consist of 689 and 678 amino acids
T3 sequence (Q9QZX8 1-687): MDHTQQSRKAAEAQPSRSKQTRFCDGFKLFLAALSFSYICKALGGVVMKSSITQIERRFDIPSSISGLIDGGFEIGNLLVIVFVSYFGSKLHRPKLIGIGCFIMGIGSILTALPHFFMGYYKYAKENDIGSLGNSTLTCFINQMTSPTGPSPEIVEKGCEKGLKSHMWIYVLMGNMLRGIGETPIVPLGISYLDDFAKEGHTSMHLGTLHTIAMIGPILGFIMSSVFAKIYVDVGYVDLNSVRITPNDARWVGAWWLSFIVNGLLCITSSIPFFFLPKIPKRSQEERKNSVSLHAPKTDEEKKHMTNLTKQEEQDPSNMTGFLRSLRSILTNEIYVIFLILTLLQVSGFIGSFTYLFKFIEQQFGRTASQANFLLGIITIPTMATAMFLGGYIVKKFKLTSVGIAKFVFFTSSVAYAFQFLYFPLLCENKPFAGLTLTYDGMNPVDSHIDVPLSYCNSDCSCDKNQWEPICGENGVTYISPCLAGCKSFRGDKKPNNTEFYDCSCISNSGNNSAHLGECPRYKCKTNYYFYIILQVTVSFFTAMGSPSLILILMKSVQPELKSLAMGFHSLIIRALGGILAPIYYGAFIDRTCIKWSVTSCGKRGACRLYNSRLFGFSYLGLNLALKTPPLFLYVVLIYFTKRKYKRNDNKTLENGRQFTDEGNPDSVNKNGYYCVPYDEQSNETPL

[4] = target: T2, hOATP1B1; design: expressed in transfected cells; host or cells: HEK-293, stably transfected; conditions: read-out: Km as substrate of hOATP1B1; cited from earlier work
[5] = HEK293, 10 µM drug, 1 µM [3H]-E1S, 1 min, read-out: Inhibitory effect on mOATP1B2-mediated E1S uptake
[6] = HEK293, read-out: Inhibitory effect on mOATP1B2-mediated TCA uptake, 10 µM drug, 1 µM [3H]-TCA, 1 min
[7] = HEK293, read-out: Inhibitory effect on mOATP1B2-mediated substrate uptake (summary over E1S and TCA), 10 µM drug, substrates E1S and TCA not separated

Compound	inhibition at 10 µM [1, 5] [%]	inhibition at 10 µM [1, 6] [%]	inhibition at 10 µM [1, 7] [%]	IC50 ([2]; estradiol-17β-glucuronide as substrate) [µM]	IC50 ([1]; 1 µM [3H]-E1S, 1 min, read-out: IC50, mOATP1B2-mediated E1S uptake) [µM]	difference in inhibition between mOATP1B2 and rOATP1B2 ([1]; 10 µM drug) [%]	IC50 ([1]; IC50, mOATP1B2-mediated TCA uptake, 1 µM [3H]-TCA, 1 min) [µM]	IC50 ([2]; ref Karlgren et al. (2012) [21]) [µM]	Km [3] [µM]	Km [4] [µM]	Inhibitory effect on mOATP1B2-mediated substrate uptake (summary over E1S and TCA) ([1]; 10 µM drug, substrates E1S and TCA not separated)	IC50 [2] [µM]
CCCCC1(CCCC)CN(c2ccccc2)c2cc(SC)c(OCC(=O)N[C@@H](C(=O)N[C@@H](CC)C(=O)O)c3ccc(O)cc3)cc2S(=O)(=O)N1 [Odevixibat, odevixibat]	69	54	54 to 82	–	–	–	–	–	–	–	–	–
CC(=O)N1CCN(c2ccc(OCC3COC(Cn4ccnc4)(c4ccc(Cl)cc4Cl)O3)cc2)CC1 (centres unmarked) [Ketoconazole, ketoconazole]	41	29	< 50	1.8	–	–	–	–	–	–	–	–
CO[C@H]1/C=C/O[C@@]2(C)Oc3c(C)c(O)c4c(O)c(c(/C=N/N5CCN(C)CC5)c(O)c4c3C2=O)NC(=O)/C(C)=C\C=C\[C@H](C)[C@H](O)[C@@H](C)[C@@H](O)[C@@H](C)[C@H](OC(C)=O)[C@@H]1C [Rifampicin, rifampicin]	44	53	≥ 50	–	9.6	> 30	7.7	–	–	–	–	–
CC(C)CN(C[C@@H](O)[C@H](Cc1ccccc1)NC(=O)O[C@H]1CCOC1)S(=O)(=O)c1ccc(N)cc1 [Amprenavir, amprenavir]	12	32	< 50	–	–	–	–	16.8	–	–	–	–
CC(C)c1nc(N(C)S(C)(=O)=O)nc(-c2ccc(F)cc2)c1/C=C/[C@@H](O)C[C@@H](O)CC(=O)O [Rosuvastatin, rosuvastatin]	50	52	≥ 50	–	–	–	–	–	28.1	0.8	–	–
Clc1ccccc1C(c1ccccc1)(c1ccccc1)n1ccnc1 [Clotrimazole, clotrimazole]	6	-2	–	–	–	–	–	–	–	–	no inhibitory properties; also recorded: did not inhibit	9
